Assay [1] in a line: Effect on LTB4-induced neutrophil function (neutropenia) after systemic administration of 0.3 micro/kg to cynomolgus monkey. The class given is functional, Cercopithecidae.
Assay [2] in a line: Effect on LTB4-induced neutrophil function (neutrophilia) after systemic administration of 0.3 micro/kg to cynomolgus monkey. The class given is functional, Cercopithecidae.
Assay [3] has as its target T1, Leukotriene B4 receptor 1 (Homo sapiens, UniProt Q15722). The experiment in a line: Antagonistic activity against human polymorphonuclear (PMN) LTB4 receptor. The class given is functional.
The target of assay [4] is T1, Leukotriene B4 receptor 1. The experiment in a line: Antagonistic activity in human polymorphonuclear (PMN) LTB4 receptor. The class given is functional.

T1 sequence (Q15722 whole entry): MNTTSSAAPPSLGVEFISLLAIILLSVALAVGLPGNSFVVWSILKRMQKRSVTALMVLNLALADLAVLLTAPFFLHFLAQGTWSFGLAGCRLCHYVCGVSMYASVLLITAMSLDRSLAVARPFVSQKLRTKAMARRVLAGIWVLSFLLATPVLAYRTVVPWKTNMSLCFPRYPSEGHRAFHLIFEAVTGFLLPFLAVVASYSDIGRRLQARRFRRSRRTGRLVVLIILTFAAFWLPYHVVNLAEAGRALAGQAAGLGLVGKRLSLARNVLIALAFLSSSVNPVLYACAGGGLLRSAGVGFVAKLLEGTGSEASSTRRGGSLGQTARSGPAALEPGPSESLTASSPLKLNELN

What is called Inhibition is how much of the control response was suppressed. Consider `CN(CCc1ccccc1)C(=O)Cc1cc(C(=O)O)cc2c(OCc3ccccc3)cccc12`, for which the Inhibition in assay [1] came to 61%; in assay [2], 73%.

In general, IC50 refers to the concentration at which inhibition is half-maximal. Compound `COc1ccc(/C=C/CCCCOc2ccc(C(=O)c3cccc(C(=O)O)c3)cc2CCC(=O)O)cc1` registered an IC50 in assay [3] of 12 nM.

Take `CN(CCc1ccccc1)C(=O)Cc1ccc(OCc2ccccc2)cc1`: the IC50 in assay [4] came out at 4700 nM.

The record behind these values is ChEMBL document CHEMBL1126258, “4-[2-[Methyl(2-phenethyl)amino]-2-oxoethyl]-8-(phenylmethoxy)-2- naphthalenecarboxylic acid: a high affinity, competitive, orally active leukotriene B4 receptor antagonist” (J Med Chem, 1992).
